{"source": "ChEMBL document CHEMBL3396950", "about": "“Enantioselective synthesis of dictyoceratin-A (smenospondiol) and -C, hypoxia-selective growth inhibitors from marine sponge” (Bioorg Med Chem, 2015)"}
{"system": "DU-145", "test": "Antiproliferative activity against human DU145 cells assessed as growth inhibition treated after 12 hrs hypoxic condition and incubated additional 24 hrs under hypoxic condition by MTT assay", "assay_type": "functional, cell-based"}
{"smiles": "C=C1CCC[C@@H]2[C@@](C)(Cc3cc(C(=O)OC)ccc3O)[C@H](C)CC[C@@]12C", "inhibition": "Dose-dependent effect"}
{"smiles": "C=C1CCC[C@@H]2[C@@](C)(Cc3cc(C(=O)OC)cc(O)c3O)[C@H](C)CC[C@@]12C", "inhibition": "Dose-dependent effect"}
{"smiles": "C=C1CCC[C@H]2[C@](C)(Cc3cc(C(=O)OC)ccc3O)[C@@H](C)CC[C@]12C", "inhibition": "Dose-dependent effect"}
{"smiles": "C=C1CCC[C@H]2[C@](C)(Cc3cc(C(=O)OC)cc(O)c3O)[C@@H](C)CC[C@]12C", "inhibition": "Dose-dependent effect"}
